≈ marks a conversion by molar mass, not a printed value.
Experiments:
[1] = molecular target: Estrogen receptor beta (Homo sapiens) (UniProt Q92731); test: Displacement of [3H]E2 from ERbeta (unknown origin) by radiometric assay relative to estradiol
[2] = molecular target: T1, Estrogen receptor (Homo sapiens) (UniProt P03372); test: Displacement of [3H]E2 from ERalpha (unknown origin) by radiometric assay relative to estradiol
T1 sequence (whole entry): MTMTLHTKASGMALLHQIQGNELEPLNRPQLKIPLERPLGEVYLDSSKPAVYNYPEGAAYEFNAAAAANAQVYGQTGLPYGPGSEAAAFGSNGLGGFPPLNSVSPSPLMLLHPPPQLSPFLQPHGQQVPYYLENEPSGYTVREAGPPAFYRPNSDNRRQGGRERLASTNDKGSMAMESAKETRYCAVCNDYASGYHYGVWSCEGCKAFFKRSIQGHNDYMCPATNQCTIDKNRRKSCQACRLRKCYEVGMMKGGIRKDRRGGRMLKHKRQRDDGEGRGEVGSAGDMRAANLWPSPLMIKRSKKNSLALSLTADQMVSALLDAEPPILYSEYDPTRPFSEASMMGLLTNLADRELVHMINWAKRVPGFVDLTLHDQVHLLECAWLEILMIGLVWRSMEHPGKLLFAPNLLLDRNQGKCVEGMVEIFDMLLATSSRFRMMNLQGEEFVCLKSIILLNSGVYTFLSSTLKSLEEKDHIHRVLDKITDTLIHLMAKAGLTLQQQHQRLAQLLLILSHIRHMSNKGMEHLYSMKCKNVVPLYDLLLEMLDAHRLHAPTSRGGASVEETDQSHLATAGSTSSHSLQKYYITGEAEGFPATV

Rattus norvegicus [3] = test: Anti-inflammatory activity in rat assessed as reduction in carrageenan-induced paw edema at 25 mg/kg, po pretreated for 1 hr followed by carrageenan challenge measured after 3 hrs by plethysmographic method relative to control; assay type: functional; set-up: scale not given: the % may be the effect or the level left
Rattus norvegicus [4] = test: Anti-inflammatory activity in rat assessed as reduction in carrageenan-induced paw edema at 10 mg/kg, po pretreated for 1 hr followed by carrageenan challenge measured after 3 hrs by plethysmographic method relative to control; assay type: functional; set-up: scale not given: the % may be the effect or the level left
Rattus norvegicus [5] = test: Anti-inflammatory activity in rat assessed as reduction in carrageenan-induced paw edema at 50 mg/kg, po pretreated for 1 hr followed by carrageenan challenge measured after 3 hrs by plethysmographic method relative to control; assay type: functional; set-up: scale not given: the % may be the effect or the level left
Rattus norvegicus [6] = test: Anti-inflammatory activity in po dosed rat assessed as reduction in carrageenan-induced paw edema pretreated for 1 hr followed by carrageenan challenge measured after 3 hrs by plethysmographic method; assay type: functional
[7] = Displacement of [3H]RO15-1788 from benzodiazepine receptor in recombinant bovine brain membranes expressed in HEK293 cells after 1 hr; assay type: cell-based, Bos taurus, Membrane
Ehrlich = test: Cytotoxicity against mouse EAC cells assessed as cell growth inhibition measured after 2 hrs by trypan blue exclusion assay; assay type: functional, cell-based
HCT-116 = test: Antiproliferative activity against human HCT116 cells measured after 48 hrs by SRB assay; assay type: functional, cell-based; settings: HCT-116, 48 h
Trypanosoma cruzi [8] = test: Antitrypanosomal activity against bloodstream forms of Trypanosoma cruzi brazilian infected in C3H/He mouse assessed as increase in mean survival time at 100 mg/kg administered twice daily for 5 days via oral gavage starting from 3 days post infection; assay type: functional
Trypanosoma cruzi [9] = test: Antitrypanosomal activity against Trypanosoma cruzi by serial dilution method; assay type: functional
[10] = molecular target: T2, Corticotropin-releasing factor receptor 1 (Homo sapiens, UniProt P34998); test: Displacement of [125I-Tyr0]-CRF from recombinant human CRF1 receptor
T2 sequence (P34998 whole entry): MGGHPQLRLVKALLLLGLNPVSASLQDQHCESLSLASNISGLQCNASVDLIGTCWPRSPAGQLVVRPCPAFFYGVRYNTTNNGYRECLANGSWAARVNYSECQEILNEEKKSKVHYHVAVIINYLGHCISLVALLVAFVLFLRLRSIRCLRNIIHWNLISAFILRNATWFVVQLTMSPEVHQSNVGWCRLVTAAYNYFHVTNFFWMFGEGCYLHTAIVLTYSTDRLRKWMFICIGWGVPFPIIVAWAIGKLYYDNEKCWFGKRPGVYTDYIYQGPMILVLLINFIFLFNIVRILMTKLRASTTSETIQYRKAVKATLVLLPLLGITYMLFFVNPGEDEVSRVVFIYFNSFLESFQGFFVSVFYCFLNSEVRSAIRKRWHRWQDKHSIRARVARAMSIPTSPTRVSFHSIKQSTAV

Bel-7402 = test: Antiproliferative activity against human Bel7402 cells measured after 24 hrs by MTT assay; assay type: functional, cell-based; settings: Bel-7402, 24 h
HT-1080 = test: Antiproliferative activity against human HT1080 cells measured after 24 hrs by MTT assay; assay type: functional, cell-based; settings: HT-1080, 24 h
Escherichia coli = test: Antibacterial activity against Escherichia coli RCMB 000106 assessed as zone of inhibition at 30 ug/ml; assay type: functional; settings: read-out: IZ
Aspergillus fumigatus = test: Antifungal activity against Aspergillus fumigatus RCMB 002006 assessed as zone of inhibition at 30 ug/ml; assay type: functional; settings: read-out: IZ
Staphylococcus aureus = test: Antibacterial activity against Staphylococcus aureus RCMB 000108 assessed as zone of inhibition at 30 ug/ml; assay type: functional; settings: read-out: IZ
Candida albicans = test: Antifungal activity against Candida albicans RCMB 0005003 assessed as zone of inhibition at 30 ug/ml; assay type: functional; settings: read-out: IZ
Pseudomonas aeruginosa = test: Antibacterial activity against Pseudomonas aeruginosa RCMB 000103 assessed as zone of inhibition at 30 ug/ml; assay type: functional; settings: read-out: IZ
[11] = system: Syncephalastrum racemosum; test: Antifungal activity against Syncephalastrum racemosum 005004 assessed as zone of inhibition at 30 ug/ml; assay type: functional; settings: read-out: IZ
Geotrichum candidum = test: Antifungal activity against Geotrichum candidum 052008 assessed as zone of inhibition at 30 ug/ml; assay type: functional; settings: read-out: IZ
Bacillus subtilis = test: Antibacterial activity against Bacillus subtilis RCMB 000109 assessed as zone of inhibition at 30 ug/ml; assay type: functional; settings: read-out: IZ
Bos taurus [12] = organism: Bos taurus; test: Displacement of [3H]RO15-1788 from benzodiazepine receptor in recombinant bovine brain membranes expressed in HEK293 cells at 0.2 nM after 1 hr relative to control; assay type: cell-based; settings: Membrane
[13] = molecular target: Gamma-aminobutyric acid receptor subunit alpha-1 (Rattus norvegicus, UniProt P62813); test: Displacement of [3H]RO15-1788 from recombinant rat GABAalpha1 receptor expressed in HEK293 cells after 1 hr; assay type: cell-based
Chain of Gamma-aminobutyric acid receptor subunit alpha-1 (P62813 whole entry): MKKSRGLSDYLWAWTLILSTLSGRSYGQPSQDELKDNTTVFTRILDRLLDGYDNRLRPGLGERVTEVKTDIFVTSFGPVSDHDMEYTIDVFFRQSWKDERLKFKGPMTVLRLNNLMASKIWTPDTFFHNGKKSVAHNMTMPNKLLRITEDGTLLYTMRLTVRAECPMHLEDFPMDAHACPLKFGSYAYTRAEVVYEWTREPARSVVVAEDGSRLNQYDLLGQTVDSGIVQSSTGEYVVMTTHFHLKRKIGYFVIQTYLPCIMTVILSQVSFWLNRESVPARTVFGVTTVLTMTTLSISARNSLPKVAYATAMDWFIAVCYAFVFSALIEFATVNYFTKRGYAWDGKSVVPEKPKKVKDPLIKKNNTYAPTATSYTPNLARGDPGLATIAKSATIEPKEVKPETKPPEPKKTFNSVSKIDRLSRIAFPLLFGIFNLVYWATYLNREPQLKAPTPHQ

[14] = molecular target: Gamma-aminobutyric acid receptor subunit alpha-5 (Rattus norvegicus, UniProt P19969); test: Displacement of [3H]RO15-1788 from recombinant rat GABAalpha5 receptor expressed in HEK293 cells after 1 hr; assay type: cell-based
Chain of Gamma-aminobutyric acid receptor subunit alpha-5 (P19969 whole entry): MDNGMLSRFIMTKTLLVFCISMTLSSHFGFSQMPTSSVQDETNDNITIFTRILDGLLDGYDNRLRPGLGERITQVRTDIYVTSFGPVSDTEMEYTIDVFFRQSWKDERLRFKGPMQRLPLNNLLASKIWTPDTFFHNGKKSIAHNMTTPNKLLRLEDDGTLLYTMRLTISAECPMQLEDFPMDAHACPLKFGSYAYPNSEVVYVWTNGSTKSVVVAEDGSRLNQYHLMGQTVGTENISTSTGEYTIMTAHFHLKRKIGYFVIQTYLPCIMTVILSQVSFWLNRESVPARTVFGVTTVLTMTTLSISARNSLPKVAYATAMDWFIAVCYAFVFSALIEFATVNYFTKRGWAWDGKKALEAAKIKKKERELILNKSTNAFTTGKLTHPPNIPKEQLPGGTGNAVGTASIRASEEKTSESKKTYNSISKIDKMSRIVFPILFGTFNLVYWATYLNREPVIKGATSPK

[15] = molecular target: Gamma-aminobutyric acid receptor subunit alpha-2 (Rattus norvegicus, UniProt P23576); test: Displacement of [3H]RO15-1788 from recombinant rat GABAalpha2 receptor expressed in HEK293 cells after 1 hr; assay type: cell-based
Chain of Gamma-aminobutyric acid receptor subunit alpha-2 (P23576 whole entry): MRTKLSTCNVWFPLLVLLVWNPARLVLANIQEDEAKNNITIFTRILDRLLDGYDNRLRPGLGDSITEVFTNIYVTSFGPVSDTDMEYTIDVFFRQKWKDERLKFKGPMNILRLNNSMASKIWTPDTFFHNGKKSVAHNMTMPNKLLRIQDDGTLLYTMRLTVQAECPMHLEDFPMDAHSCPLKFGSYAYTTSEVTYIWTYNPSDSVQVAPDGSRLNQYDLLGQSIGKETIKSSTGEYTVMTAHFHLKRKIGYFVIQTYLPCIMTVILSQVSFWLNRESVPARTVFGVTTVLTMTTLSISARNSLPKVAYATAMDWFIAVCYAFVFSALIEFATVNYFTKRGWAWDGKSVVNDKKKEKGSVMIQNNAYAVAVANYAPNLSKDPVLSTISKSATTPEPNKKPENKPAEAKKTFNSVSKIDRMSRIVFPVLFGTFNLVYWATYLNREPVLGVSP

Oryctolagus cuniculus = organism: Oryctolagus cuniculus; test: Potency index, ratio of theophylline IC50 to compound IC50 for inhibition of PDE in rabbit lung homogenates using [8-3H]cAMP as substrate measured 3 times between 3 to 12 mins; assay type: tissue-based
Bos taurus [16] = organism: Bos taurus; test: Potency index, ratio of theophylline IC50 to compound IC50 for inhibition of PDE in beef heart homogenates using [8-3H]cAMP as substrate measured 3 times between 3 to 12 mins; assay type: tissue-based
Bos taurus [17] = organism: Bos taurus; test: Ratio of IC50 for displacement of [3H]RO15-1788 from benzodiazepine receptor in bovine brain membranes in absence of GABA to IC50 for displacement of [3H]RO15-1788 from benzodiazepine receptor in bovine brain membranes in presence of GABA; assay type: cell membranes
[18] = Displacement of [3H]RO15-1788 from benzodiazepine receptor in bovine brain membranes; assay type: cell membranes, Bos taurus, Membrane
Bos taurus [19] = organism: Bos taurus; test: Displacement of [3H]RO15-1788 from benzodiazepine receptor in bovine brain membranes at 10 uM relative to control; assay type: cell membranes; settings: Membrane

Chain of Estrogen receptor beta (Homo sapiens) (Q92731 whole entry): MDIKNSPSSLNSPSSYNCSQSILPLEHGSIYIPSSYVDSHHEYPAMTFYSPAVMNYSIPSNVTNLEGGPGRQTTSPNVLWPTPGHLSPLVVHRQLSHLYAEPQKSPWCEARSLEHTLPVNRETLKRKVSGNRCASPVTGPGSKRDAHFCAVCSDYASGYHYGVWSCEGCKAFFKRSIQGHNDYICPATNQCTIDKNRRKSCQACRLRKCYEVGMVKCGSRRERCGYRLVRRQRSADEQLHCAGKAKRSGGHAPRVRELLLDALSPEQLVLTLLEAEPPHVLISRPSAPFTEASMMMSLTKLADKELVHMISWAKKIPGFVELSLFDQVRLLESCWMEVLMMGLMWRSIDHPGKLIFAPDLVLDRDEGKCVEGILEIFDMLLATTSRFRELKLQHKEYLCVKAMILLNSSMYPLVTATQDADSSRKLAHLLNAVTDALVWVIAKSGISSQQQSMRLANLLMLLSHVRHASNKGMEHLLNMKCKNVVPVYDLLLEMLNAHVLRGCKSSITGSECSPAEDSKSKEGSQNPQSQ

Question: For `Oc1ccc(-c2c(-c3ccccc3)nn3cccnc23)cc1`, which relative binding affinity (RBA) [1] is on record?
Answer: 0.023

Question: What about the relative binding affinity (RBA) [2] of the same compound?
Answer: 0.007

Question: Which results are given for `CCN1CCC(=O)n2nc(-c3ccccc3)cc21`?
Answer: Activity (Rattus norvegicus [3]): 69.8%; Activity (Rattus norvegicus [4]): 54.1%; Activity (Rattus norvegicus [5]): 90.1%; ED50 (Rattus norvegicus [6]): 7.3 mg/kg

Question: For `CN1C(=O)CN=C(c2ccccc2)c2cc(Cl)ccc21` [DIAZEPAM], which Ki [7] is on record?
Answer: 0.01 µM

Question: Which IC50 (Ehrlich) does the source give for `COc1ccc(Cc2nn3c(-c4ccc(OC)cc4)c(C#N)c(N)nc3c2C(=O)Nc2ccc(Cl)cc2)cc1` here?
Answer: 25 µg/mL (≈ 46.4 µM)

Question: Which IC50 (HCT-116) does the source give for `CSc1nn2c(NC3CCCCC3)cc(-c3ccccc3)nc2c1C#N` here?
Answer: 0.002 µM

Question: Which results are given for `Cc1cc(N/N=C/c2ccc([N+](=O)[O-])o2)n2nccc2n1`?
Answer: Activity (Trypanosoma cruzi [8]): 63.4%; MLC (Trypanosoma cruzi [9]): 10 µg/mL (≈ 34.9 µM); MIC (Trypanosoma cruzi [9]; Trypanosoma cruzi): 10 µg/mL (≈ 34.9 µM)

Question: For `CCC(CC)Nc1cc(C)nc2c(-c3ccc(C)cc3Cl)c(C)nn12`, which Ki [10] is on record?
Answer: 0.0015 µM

Question: With `CCC(CC)Nc1cc(C)nc2c(-c3ccc(Cl)cc3C)c(C)nn12` as the compound, how does the Ki [10] read?
Answer: 0.0017 µM

Question: Which IC50 (Bel-7402) does the source give for `N#Cc1cnn2c(Nc3cc(C(F)(F)F)cc(C(F)(F)F)c3)cc(COCCN3CCCCC3)nc12` here?
Answer: 13.7 µM

Question: And the IC50 (HT-1080)?
Answer: 17.6 µM

Question: What does the source list for `Nc1nn2c(-c3cccs3)cc(-c3cccs3)nc2c1/N=N/c1ccccc1`?
Answer: zone of inhibition at 30 µg/mL (Escherichia coli): 14.9 mm; zone of inhibition at 30 µg/mL (Aspergillus fumigatus): 15.2 mm; zone of inhibition at 30 µg/mL (Staphylococcus aureus): 15.3 mm; zone of inhibition at 30 µg/mL (Candida albicans): 10 mm; zone of inhibition at 30 µg/mL (Pseudomonas aeruginosa): 9.3 mm; zone of inhibition at 30 µg/mL [11]: 8.2 mm; zone of inhibition at 30 µg/mL (Geotrichum candidum): 11.3 mm; zone of inhibition at 30 µg/mL (Bacillus subtilis): 17.9 mm

Question: What does the source list for `O=c1c(-c2ccsc2)c[nH]c2c(-c3ccccn3)cnn12`?
Answer: inhibition (Bos taurus [12]): 98%; Ki [13]: 0.007 µM; Ki [14]: 0.74 µM; Ki [7]: 0.0039 µM; Ki [15]: 0.927 µM

Question: For `Cc1cc(NCCO)n2nccc2n1`, which Ratio IC50 (Oryctolagus cuniculus) is on record?
Answer: 0.5

Question: And the Ratio IC50 (Bos taurus [16])?
Answer: 3.7

Question: Which relative binding affinity (RBA) [1] does the source give for `Oc1ccc(-c2nn3cccnc3c2-c2ccc(O)cc2)cc1` here?
Answer: 0.1

Question: What about the relative binding affinity (RBA) [2] of the same compound?
Answer: 0.004

Question: Which results are given for `COc1ccc(-c2cnn3c(=O)c(-c4ccsc4)c[nH]c23)cc1`?
Answer: Ratio IC50 (Bos taurus [17]): 1.25; Ki [18]: 0.0422 µM; inhibition (Bos taurus [19]): 92%
